In patent US4120857A, “Derivatives of 1,2,3,3-tetramethyl-2-azabicyclo[2.2.2]octan-5-endo-ol” (priority 1977, dated 1978):
Read-outs that look alike come from different tables or passages of the source.

What was measured:
[1] = test system: corneal reflex; experiment: Local Anesthetic Test (corneal reflex procedure); type: in vivo, rabbits; conditions: one drop into the conjunctival sac of one rabbit eye; isotonic saline
Description: In this test a corneal reflex was elicited in rabbits by lightly touching the cornea with a stiff hair or bristle which normally would cause the rabbit to blink. The assay was carried out using initially a 2% solution or suspension of the test compound in isotonic saline. A cup or pouch was formed of the lower eyelid by pulling down the lower lid, and one drop of the test compound was instilled into the conjunctival sac of one eye. The other eye serves as a control. The corneal reflex was tested every fifteen minutes until the reflex returned to normal. If the reflex could be elicited 3 out of 5 times, then there was considered to be no local anesthetic effect. If the reflex was blocked and the compound was determined to be a local anesthetic, lower concentrations were tested to determine the minimum concentration needed for local anesthetic activity. Results for several of the compounds of the present invention are expressed in the table below as the MEC (minimum effective concentration) or minimum concentration of compound required for local anesthetic activity.

[2] = test system: ventricular fibrillation by chloroform; experiment: Mouse Chloroform Test (antiarrhythmic activity); type: in vivo, female swiss albino mice; conditions: mice; for ED50: Mus musculus, read-out: ED50, dose required to protect 50% of the test animals against development of ventricular fibrillation by chloroform
Description: 160:22-30 (1968). The test compounds were administered orally (p.o.) or intraperitoneally (i.p.) to female swiss albino mice weighing 16-24 grams. The arrhythmia induced by the chloroform was monitored by electrocardiogram recording and the normal and abnormal heart beats were tabulated.

[3] = test system: genetically hypertensive (spontaneously hypertensive) rats of the Okamato strain; experiment: Spontaneously Hypertensive Rat Test (antihypertensive activity); type: in vivo; conditions: po, compounds dosed orally, five animals per test dose, read-out: MED (minimum effective dose), dose required to give a minimum of a 20 mm Hg drop in blood pressure from control
Excerpt: Clin. Med. 78:957-962 (1971). Five animals were used for each test dose. Results of the test are expressed in the table below as the MED (minimum effective dose) or dose required to give a minimum of a 20 mm Hg drop in blood pressure from control. | *compounds dosed orally

| Compound | MEC (minimum effective concentration), minimum concentration of compound required for local anesthetic activity [1] | ED50 ([2]; po) | ED50 ([2]; ip) | further results |
| --- | --- | --- | --- | --- |
| CN1C(C)(C)[C@H]2CC[C@]1(C)C[C@H]2OCCCNC(=O)c1ccccc1 (relative stereo) [Example 3, 5-endo-(3-Benzoylaminopropyloxy)-1,2,3,3-tetramethyl-2-azabicyclo[2.2.2]octane] | 0.5% | 10 mg/kg | – | – |
| CN1C(C)(C)[C@H]2CC[C@]1(C)C[C@H]2OC(=O)Nc1ccccc1 (relative stereo) [Example 5, 5-endo-Phenylcarbamoyloxy-1,2,3,3-tetramethyl-2-azabicyclo[2.2.2]octane] | – | 44 mg/kg | – | – |
| CCCC(=O)O[C@@H]1C[C@@]2(C)CC[C@@H]1C(C)(C)N2C (relative stereo) [Example 2D, 5-endo-Butyryloxy-1,2,3,3-tetramethyl-2-azabicyclo[2.2.2]-octane] | – | 80 mg/kg | – | – |
| COc1cc(C(=O)O[C@@H]2C[C@@]3(C)CC[C@@H]2C(C)(C)N3C)cc(OC)c1OC (relative stereo) [Example 2C, 5-endo-(3,4,5-Trimethoxybenzoyl-oxy)-1,2,3,3-tetramethyl-2-azabicyclo[2.2.2]octane] | – | – | 50 mg/kg | – |
| CN1C(C)(C)[C@H]2CC[C@]1(C)C[C@H]2OC(=O)c1ccc(N)cc1 (relative stereo) [Example 2F, 5-endo-(p-Aminobenzoyloxy)-1,2,3,3-tetramethyl-2-azabicyclo-[2.2.2]octane] | 2.0% | 25 mg/kg | 6.3 mg/kg | – |
| CN1C(C)(C)[C@H]2CC[C@]1(C)C[C@H]2OC(=O)C1CC1 (relative stereo) [Example 2A, 5-endo-Cyclopropylcarbonyloxy-1,2,3,3-tetramethyl-2-azabicyclo-[2.2.2]octane] | – | – | – | minimal effective dose [3]: 25 mg/kg |
| CN1C(C)(C)[C@H]2CC[C@]1(C)C[C@H]2OCCCNC(=O)C(c1ccccc1)c1ccccc1 (relative stereo) [Example 4, 5-endo-(3-Diphenylacetylaminopropyloxy)-1,2,3,3-tetramethyl-2-azabicyclo[2.2.2]octane] | 0.5% | 10 mg/kg | – | – |
| CN1C(C)(C)[C@H]2CC[C@]1(C)C[C@H]2OC(=O)C(c1ccccc1)c1ccccc1 (relative stereo) [Example 2G, 5-endo-(Diphenylacetoxy)-1,2,3,3-tetramethyl-2-azabicyclo[2.2.2]-octane] | 0.25% | 20 mg/kg | 12.5 mg/kg | – |
| CC(=O)O[C@@H]1C[C@@]2(C)CC[C@@H]1C(C)(C)N2C (relative stereo) [Example 1, 5-endo-Acetoxy-1,2,3,3-tetramethyl-2-azabicyclo[2.2.2]-octane] | – | – | – | minimal effective dose [3]: 12.5 mg/kg |
| CN1C2(C)CCC(C(OC(=O)c3ccccc3)C2)C1(C)C (stereo not drawn) [Example 2B, 5-endo-Benzoyloxy-1,2,3,3-tetramethyl-2-azabicyclo(2.2.2]-octane] | – | – | – | ED50, dose required to protect 50% of the test animals against development of ventricular fibrillation by chloroform ([2]; i.p.): 50 mg/kg |
